Where a SMILES comes first, the peptide text is derived from it. The star is where a group is joined. Cbz = O=C(OCc1ccccc1)*
Legend:
LNCaP-ARR2-GFP cells = assay: AR-regulated GFP expression in LNCaP-ARR2-GFP cells; assay type: cell-based; settings: for GFP expression (AR agonist activity): SMEM, absence of DHT, DL3 at 25 nM or 20 μM; for cell growth: LNCaP-ARR2-GFP cells
[1] = tested on: LNCaP cells (mutant AR, H877A); assay: LNCaP cell growth, MTT staining; assay type: cell-based
From the text: (§1) Viable cells are stained with MTT (3-(4,5-dimethylthiazol-2-yl)-2,5-diphenyltetrazolium bromide). *, **, and *** designate p<0.05, <0.01, and 0.001, respectively, compared with controls.

LNCaP cells [2] = assay: Cell cycle distribution and apoptosis, flow cytometry (propidium staining) and western blotting; assay type: cell-based; settings: for increase of the portion of cells in G1 phase of cell cycle: regardless of presence or absence of DHT
Protocol: To further appreciate the effects of DL3 on cell growth, cell cycle distribution is determined using the flow cytometry analysis. After incubation of LNCaP cells for 24 hr in SMEM, the majority of cells are in the G1 phase of cell cycle. […] The cell cycle distribution is examined by the propidium staining method. […] Thus, DL3 induces GI arrest of prostate cancer cells in short term culture.

LNCaP cells [3] = assay: PSA secretion, ELISA of culture supernatant; assay type: cell-based; settings: for DHT-induced PSA production / PSA production under androgen-free conditions: 20 μM, 48 hr; for PSA production under androgen-free conditions: no DHT
Protocol: PSA in the culture supernatant is determined by using an enzyme-linked immunosorbent assay (ELISA) kit. PSA levels are normalized by cell density.

LNCaP cells [4] = assay: Cellular PSA and AR protein, western blotting; assay type: cell-based
Protocol: In FIG. 6, cellular PSA and AR are analyzed by western blotting androgen-starved LNCaP cells.

LNCaP cells [5] = assay: PSA and AR mRNA expression, RT-PCR; assay type: cell-based; settings: 24 hr; for expression of AR mRNA: 20 μM DL3 or Bical
Protocol: In FIG. 7 LNCaP or 22Rv1 cells (A) are treated for 24 hr with DL3 and total RNA is extracted and analyzed by real-time RT-PCR. […] PSA mRNA in LNCaP cells is approximately 20 fold higher than that in 22Rv1 cells (FIG. 7A).

LNCaP cells [6] = assay: AR protein stability and hsp70/hsp90 expression, western blotting; assay type: cell-based
Protocol: Cell lysates are prepared and analyzed by western blotting. […] To further determine how DL3 downregulates AR, LNCaP cells are incubated for 24 hr with DL3 in the absence or presence of proteasome inhibitor MG132.
Hsp70 and hsp90 are key molecular chaperones in cells. Along with several co-chaperones, hsp70 and hsp90 play critical roles in folding and assembling AR to a high-affinity ligand binding conformation and in regulating AR activation that occurs following hormone binding. Therefore, the possibility of whether the downregulation of AR protein by DL3 is mediated by its effects on hsp70 or hsp90 expression is investigated.
Thus, the effects of DL3 on hsp70 expression are further investigated in several other prostate cancer cell lines, including LAPC-4 (wildtype AR), 22Rv1 (mutant AR), and AR-negative cell lines PC-3, DU-145, PWE1-NB14 (ATCC), and PWE1-NB26 (ATCC). […] In FIG. 10, LAPC-4 (in SMEM) and all other (in CMEM) cells are treated for 24 hr and analyzed by western blotting. LNCaP cells are transfected for 24 hr with hsp70 or its control vector, then treated for 24 hr.

LNCaP cells [7] = assay: PSA and AR mRNA expression, RT-PCR; assay type: cell-based; settings: 6 hr
human PSA gene promoter = assay: PSA promoter luciferase reporter (pGL3-PSA-luc) in LNCaP cells; settings: 1 nM DHT, 24 hr
LNCaP-Flut-R cells [8] = assay: Growth of Flut-refractory LNCaP cells, MTT; assay type: cell-based; settings: 10 μM, 4 days, MTT (FIG. 2F)
From the text: as §1

LNCaP-Nilut-R cells [9] = assay: Growth of Nilut-refractory LNCaP cells, MTT; assay type: cell-based; settings: 10 μM, 4 days, MTT (FIG. 2F)
From the text: as §1

LNCaP-Flut-R cells [10] = assay: PSA secretion, ELISA of culture supernatant; assay type: cell-based; settings: 1 nM DHT, 10 μM, 48 hr (FIG. 5D)
Protocol: (§2) For the following discussion, see FIG. 5, where androgen-starved LNCaP, LNCaP-Flut-R, or LNCaP-Nilut-R cells are plated into 96-well plates at 2×10^4 cells/wells in SMEM and treated for 48 hr. PSA in the culture supernatant is determined by using an enzyme-linked immunosorbent assay (ELISA) kit. PSA levels are normalized by cell density. […] The DHT-induced production of PSA is reduced by approximately 50% in cells treated with 5 μM of DL3 (FIG. 5B). […] PSA production is elevated in LNCaP-Flut-R and LNCaP-Nilut-R cells compared with that in their parental cells (FIG. 5D).

LNCaP-Nilut-R cells [11] = assay: PSA secretion, ELISA of culture supernatant; assay type: cell-based; settings: 1 nM DHT, 10 μM, 48 hr (FIG. 5D)
Protocol: as §2

Question: With `CC(O)(CS(=O)(=O)c1ccc(F)cc1)C(=O)Nc1ccc(C#N)c(C(F)(F)F)c1` (stereo not drawn) [Bical, Bicalutamide, reference compound] as the compound, how does the “GFP expression (AR agonist activity)” value (LNCaP-ARR2-GFP cells) read?
Answer: The value was “not”.

Question: What about the “effect on DHT-stimulated growth of LNCaP cells” value [1] of the same compound?
Answer: The value was “inhibit DHT-stimulated growth of LNCaP cells in a dose-dependent manner”.

Question: What about the “increase of the portion of cells in G1 phase of cell cycle” value (LNCaP cells [2]; 24 hr) of the same compound?
Answer: Its value is 15%.

Question: And the induction of apoptosis (LNCaP cells [2]; 24 hr, DL3 at 20 μM)?
Answer: The induction of apoptosis was “does not induce apoptosis”.

Question: And the “survivin expression and caspase 3 cleavage (western blotting)” value (LNCaP cells [2]; data not shown)?
Answer: Its value is “alter neither survivin expression nor caspase 3 cleavage”.

Question: What about the “DHT-induced PSA production” value (LNCaP cells [3]; 1 nM DHT) of the same compound?
Answer: The value was “reduce DHT-induced PSA production”.

Question: What about the “PSA production under androgen-free conditions” value (LNCaP cells [3]) of the same compound?
Answer: Its value is “stimulates PSA production”.

Question: And the “PSA protein expression under androgen-free culture conditions” value (LNCaP cells [4]; 20 μM, 24 hr)?
Answer: Its value is “enhances PSA expression”.

Question: What about the “expression of AR protein” value (LNCaP cells [4]; 20 μM, 24 hr (FIG. 6C)) of the same compound?
Answer: The value was “moderately downregulated”.

Question: What about the “DHT-induced PSA protein expression” value (LNCaP cells [4]; SMEM, 24 hr, Flut, Nilut, Bical at 20 μM) of the same compound?
Answer: Its value is “moderately reduced”.

Question: What about the “DHT-stimulated PSA mRNA expression” value (LNCaP cells [5]; 20 μM, 1 nM DHT) of the same compound?
Answer: Its value is “only partially inhibits”.

Question: And the “basal level of PSA mRNA” value (LNCaP cells [5]; 20 μM, androgen-starved)?
Answer: The value was “no significant effects”.

Question: What about the “expression of AR mRNA” value (LNCaP cells [5]; 1 nM DHT) of the same compound?
Answer: Its value is “partially downregulated”.

Question: What does the source list for `C[C@]12CCC(=O)C[C@@H]1CC[C@@H]1[C@@H]2CC[C@]2(C)[C@@H](O)CC[C@@H]12` [DHT, dihydrotestosterone, reference compound]?
Answer: PSA production (LNCaP cells [3]): significantly elevated; expression of AR mRNA (LNCaP cells [5]; 1 nM DHT): partially downregulated; expression of hsp70 (LNCaP cells [6]; SMEM, 24 hr with DHT or CHX (FIG. 9B, lane 3 or 5 vs. lane 1)): also reduced; AR mRNA expression (LNCaP cells [7]): not significantly altered; enhancement of PSA promoter activity (human PSA gene promoter): approximately 5 fold

Question: For `CC(C)C(=O)Nc1ccc([N+](=O)[O-])c(C(F)(F)F)c1` [Flut, Flutamide], which “increase of the portion of cells in G1 phase of cell cycle” value (LNCaP cells [2]; 24 hr) is on record?
Answer: Its value is 15%.

Question: `O=c1c(-c2ccc(O)cc2)coc2cc(O)cc(O)c12` [Genistein] was tested. Which cell growth (LNCaP-ARR2-GFP cells) did it give?
Answer: The cell growth was “significantly inhibited cell growth”.

Question: And the “GFP expression (AR agonist activity)” value (LNCaP-ARR2-GFP cells)?
Answer: The value was “enhanced GFP expression”.

Question: Which “DL3-induced reduction of AR” value (LNCaP cells [6]; 24 hr with DL3 in presence of MG132) does the source give for `CC(C)C[C@@H](C=O)NC(=O)[C@H](CC(C)C)NC(=O)[C@H](CC(C)C)NC(=O)OCc1ccccc1` [MG132, reference compound] (Cbz-Leu-Leu-Leu-aldehyde) here?
Answer: The value was “reversed”.

Question: `CC1(C)NC(=O)N(c2ccc([N+](=O)[O-])c(C(F)(F)F)c2)C1=O` [Nilut, Nilutamide, reference compound] was tested. Which “growth of LNCaP-Flut-R cells” value (LNCaP-Flut-R cells [8]) did it give?
Answer: Its value is “promotes growth”.

Question: And the “growth of LNCaP-Nilut-R cells” value (LNCaP-Nilut-R cells [9])?
Answer: Its value is “promotes growth”.

Question: What about the “PSA production in parental LNCaP cells” value (LNCaP cells [3]; 1 nM DHT, 10 μM, 48 hr (FIG. 5D)) of the same compound?
Answer: The value was “enhances PSA production”.

Question: What about the “DHT-induced PSA production” value (LNCaP cells [3]; 1 nM DHT) of the same compound?
Answer: Its value is “not”.

Question: And the “PSA production under androgen-free conditions” value (LNCaP cells [3])?
Answer: Its value is “stimulates PSA production”.

Question: What about the “PSA production in LNCaP-Flut-R cells” value (LNCaP-Flut-R cells [10]) of the same compound?
Answer: The value was “enhances PSA production”.

Question: What about the “PSA production in LNCaP-Nilut-R cells” value (LNCaP-Nilut-R cells [11]) of the same compound?
Answer: Its value is “enhances PSA production”.

Question: Which results are given for `O=c1c(O)c(-c2ccc(O)c(O)c2)oc2cc(O)cc(O)c12` [Querstin]?
Answer: cell growth (LNCaP-ARR2-GFP cells): significantly inhibited cell growth; GFP expression (AR agonist activity) (LNCaP-ARR2-GFP cells): enhanced GFP expression

Question: `Oc1ccc(/C=C/c2cc(O)cc(O)c2)cc1` [Resveratol] was tested. Which cell growth (LNCaP-ARR2-GFP cells) did it give?
Answer: The cell growth was “significantly inhibited cell growth”.

Question: What about the “GFP expression (AR agonist activity)” value (LNCaP-ARR2-GFP cells) of the same compound?
Answer: The value was “enhanced GFP expression”.

— patent US7829575B2, “Methods for treating androgen receptor related disorders” (University of Cincinnati, priority 2006, dated 2010)
